Measurements taken from US20230271928A1, “NAPHTHYLUREA COMPOUND, METHODS OF PREPARATION AND USE THEREOF” (Henan Radiomedical Science and Technology Co., Ltd., priority 2021, published 2023).
Read-outs that look alike come from different tables or passages of the source.

How the values were obtained:
Type in all cases: cell-based
SMMC-7721 cells = test: MTT proliferation assay, SMMC-7721; details: Homo sapiens; SMMC-7721, MTT, 48 h
Description: (§1) Difference cell lines HepG2, SMMC-7721, HuH-7, MCF-7, MDA-MB-231, MDA-MB-468, PC9, PC9-AR, PC9-GR, Jurkat and Molt-13 were harvested during log phase; the number of the cells in an original cell suspension was counted; the original cell suspension was diluted to a density of 5×10^4 cells/mL; for a 96-well plate, 100 uL of the cell suspension was transferred to each well; DMSO is used as solvent for negative control; (2E)-3-(6-bromo-2-pyridyl)-2-cyano-N-[(1S)-1-phenylethyl]-2-acrylamide (WP1066CAS: 857064-38-1, with a formula
(§2) or gefitinib was used as a positive control; the naphthylurea compound ID1120B-1 and the phosphate ID1120B-P thereof were diluted with DMSO and added into the 96-well plate to achieve a final concentration of 0.1, 0.3, 1, 3, 10, 30, 100 and 300 μmol/L in each well; the 96-well plate was incubated for 48 h; 10 μL of MTT solvent (5 mg/mL) was added into each well; the 96-well plate was incubated at 37° C. for 4 h; a culture supernatant was discarded; 150 μL of DMSO was added into each well; the 96-well plate was shaken for 10 min on a plate shaker; an optical density (OD) of the resulting product was measured at a wavelength of 490 nm by an ELISA reader. Test results were recorded. A cell growth curve was drawn with the dosage of each compound as abscissa and the absorbance value as ordinate. The half maximum inhibition rates (IC50 value) of the cancer cells were shown in Table 1, FIGS. 1A-1J and FIGS. 2A-2J.

HepG2 cells [1] = test: MTT proliferation assay, HepG2; details: Homo sapiens
Description: as §1, §2

MDA-MB-468 cells = test: MTT proliferation assay, MDA-MB-468; details: Homo sapiens, MDA-MB-468, MTT
Description: (§3) Test results were recorded. A cell growth curve was drawn with the dosage of each compound as abscissa and the absorbance value as ordinate.

MCF-7 cells = test: MTT proliferation assay, MCF-7; details: Homo sapiens
Description: as §3

HepG2 cells [2] = test: Cell cycle analysis by PI flow cytometry; details: HepG2, 48 h
Description: HepG2 cells were harvested during log phase, digested, centrifuged and prepared into a single cell suspension; the number of the cells in the single cell suspension was counted; the cells were seeded into a 12-well plate, with 2×10^5 cells per well; three wells were used as a parallel control design; 16 hours after seeding, the cells were treated with the compounds in a concentration gradient for 48 h; the cells were digested with trypsin and resuspended; the number of the cells in the cell suspension was counted and diluted to 5×10^5 cells/mL; after the digestion was completed, the cell suspension was centrifuged; the supernatant was discarded; the pellet was washed twice with PBS (each time the mixture was centrifuged 2000 rpm for 5 min); the supernatant was discarded; a fixative comprising 980 μL of 70% cold ethanol and 20 μL of 5% BSA (a small amount of BSA reduces cellular stress and damage) was added to each microcentrifuge tube, so that the cells were fixed overnight at 4° C.; the fixative is discarded; the cells were washed three times in PBS to remove residual fixative (each time the mixture was centrifuged at 1000 rpm for 3 min); a DNA quantification kit is used to measure the content of DNA according to the following instruction (Suo Laibao, Beijing): each sample was incubated in 100 μL of RNase A at 37° C. for 30 min; 500 μL of PI (propidium iodide) was added to each sample; each sample was incubated at room temperature for 30 min in the dark; the cell cycle was analyzed by a flow cytometry and a ModFit software; and Graphpad prism 6.0 was used to estimate the percentage of a cell population in the different phases of the cell cycle.

MDA-MB-231 cells = test: MTT proliferation assay, MDA-MB-231; details: Homo sapiens; MDA-MB-231, MTT, 48 h
Description: as §3

HuH-7 cells = test: MTT proliferation assay, HuH-7; details: Homo sapiens; HuH-7, MTT, 48 h
Description: as §1, §2

[3] = compared with negative control (DMSO)
[4] = MCF7, MCF-7, MTT, 48 h, read-out: IC50

Compound | IC50 (HepG2 cells [1]; HepG2, 48 h) [µM] | IC50 (MDA-MB-468 cells; MDA-MB-468, 48 h) [µM] | further results
O=C(NCc1ccccc1)Nc1ccc(OCc2ccc(OCCN3CCCCC3)c(Cl)c2)c2ccccc12 [ID1120C-1] |  |  | IC50 (SMMC-7721 cells): 6.75 µM
N#Cc1cc(OCCN2CCCCC2)ccc1COc1ccc(NC(=O)NCc2ccccc2)c2ccccc12 [ID1120D-1] |  |  | IC50 (SMMC-7721 cells): 6.89 µM
O=C(Nc1ccc(OCc2ccc(OCCN3CCCCC3)cc2)c2ccccc12)NC1CCCCC1 [ID1207B-1] |  |  | IC50 (HepG2 cells [1]; 48 h): 462 µM; IC50 (MDA-MB-468 cells; 48 h): 267 µM
O=C(NCCc1ccccc1)Nc1ccc(OCc2ccc(OCCN3CCCCC3)cc2)c2ccccc12 [ID1210B-1] |  |  | IC50 (MCF-7 cells; MCF7, 48 h): 8.08 µM
O=C(Nc1ccc(OCc2ccc(OCCN3CCCCC3)cc2Cl)c2ccccc12)NC1CCCCC1 [ID1215C-1] |  |  | IC50 (MDA-MB-468 cells; 48 h): 3.47 µM
O=C(Nc1ccc(OCc2ccc(OCCN3CCCCC3)cc2)c2ccccc12)NC1CCCC1 [ID1217B-1] | 72.6 | 33.9 | 
O=C(NCc1cccc(Cl)c1)Nc1ccc(OCc2ccc(OCCN3CCCCC3)cc2)c2ccccc12 [ID210106D-1] | 5.25 |  | IC50 (HuH-7 cells): 6.83 µM
O=C(NCc1ccc(Cl)c(C(F)(F)F)c1)Nc1ccc(OCc2ccc(OCCN3CCCCC3)cc2)c2ccccc12 [ID210114B-1] | 3.97 |  | IC50 (MCF-7 cells; [4]): 13.2 µM
O=C(NCc1ccc(F)c(Cl)c1)Nc1ccc(OCc2ccc(OCCN3CCCCC3)cc2)c2ccccc12 [ID210115B-1] | 4.65 |  | IC50 (MCF-7 cells; [4]): 39 µM
O=C(NCc1ccc(OC(F)(F)F)cc1)Nc1ccc(OCc2ccc(OCCN3CCCCC3)cc2)c2ccccc12 [ID210118D-1] | 37 |  | IC50 (HuH-7 cells): 26.5 µM
O=C(Nc1ncccc1Cl)Nc1ccc(OCc2ccc(OCCN3CCCCC3)cc2)c2ccccc12 [ID210119B-1] | 26.5 | 26.6 | 
O=C(Nc1ccc(OCc2ccc(OCCN3CCCCC3)cc2)c2ccccc12)NC1CCOCC1 [ID210127B-1] | 3.5 | 0.736 | 
S=C(NCc1ccccc1)Nc1ccc(OCc2ccc(OCCN3CCCCC3)cc2)c2ccccc12 [IY1207A-1] |  |  | IC50 (MCF-7 cells; [4]): 24.3 µM
O=C(Nc1ccc(OCc2ccc(OCCN3CCCCC3)cc2F)c2ccccc12)NC1CCCC1 [IY1215C-1] |  | 5.36 | 
O=C(Nc1ccc(Cl)cc1)Nc1ccc(OCc2ccc(OCCN3CCCCC3)cc2)c2ccccc12 [IY1229D-1] |  |  | IC50 (HepG2 cells [1]; 48 h): 12.2 µM; IC50 (MDA-MB-468 cells; 48 h): 14.2 µM
O=C(Nc1ccc(F)cc1)Nc1ccc(OCc2ccc(OCCN3CCCCC3)c(Br)c2)c2ccccc12 [IY210105A-1] |  | 20.4 | 
O=C(Nc1ccc(Cl)cc1)Nc1ccc(OCc2ccc(OCCN3CCCCC3)c(F)c2)c2ccccc12 [IY210106D-1] |  |  | IC50 (MDA-MB-468 cells; 48 h): 6.34 µM
O=C(NCc1ccc(Cl)cc1)Nc1ccc(OCc2ccc(OCCN3CCCCC3)cc2)c2ccccc12 [IY210113C-1] | 3.94 |  | IC50 (HuH-7 cells): 12.5 µM
O=C(NCc1ccc(C(F)(F)F)cc1)Nc1ccc(OCc2ccc(OCCN3CCCCC3)cc2)c2ccccc12 [IY210113D-1] | 3.36 |  | IC50 (HuH-7 cells): 13.7 µM
O=C(NCc1cc(F)cc(F)c1)Nc1ccc(OCc2ccc(OCCN3CCCCC3)cc2)c2ccccc12 [IY210115B-1] | 5.77 |  | IC50 (SMMC-7721 cells): 40.1 µM
O=C(NCc1ccc(F)cc1F)Nc1ccc(OCc2ccc(OCCN3CCCCC3)cc2)c2ccccc12 [IY210118B-1] |  |  | IC50 (SMMC-7721 cells): 23.6 µM
O=C(NCc1ccc(F)cc1)Nc1ccc(OCc2ccc(OCCN3CCCCC3)cc2)c2ccccc12 [IY210119B-1] | 3.5 |  | IC50 (SMMC-7721 cells): 0.736 µM
O=C(Nc1ccc(-c2ccccc2)cc1)Nc1ccc(OCc2ccc(OCCN3CCCCC3)cc2)c2ccccc12 [IY210128B-1] |  | 62.5 | 
CNC(=O)c1cc(Oc2ccc(NC(=O)Nc3ccc(Cl)c(C(F)(F)F)c3)cc2)ccn1 [Sorafenib, reference compound] | 6.17 |  | IC50 (SMMC-7721 cells): 30 µM; IC50 (HuH-7 cells): 17.6 µM

Now from value to molecule, other results behind:

IC50 (HepG2 cells [1]; HepG2, 48 h) [µM] | IC50 (MDA-MB-468 cells; MDA-MB-468, 48 h) [µM] | Compound | further results
0.88 | 688 | O=C(Nc1ccc(Cl)c(Cl)c1)Nc1ccc(OCc2ccc(OCCN3CCCCC3)cc2)c2ccccc12 [ID1214B-1] | induction of cells in the G2/M phase (HepG2 cells [2]; [3]): dramatically induce the liver cancer cells in the G2/M phase in a dose-dependent manner; percentage of cells in the G1/S phase (HepG2 cells [2]; [3]): significantly decrease the percentage of the liver cancer cells in the G1/S phase; length of the G2 phase, % of the cell cycle, after treatment (HepG2 cells [2]; value reached after treatment (increase from DMSO control value)): 17.54%; IC50 (SMMC-7721 cells): 8.73 µM; IC50 (MDA-MB-231 cells): 114 µM; IC50 (MCF-7 cells; [4]): 88.4 µM
93.8 |  | COc1ccc(NC(=O)Nc2ccc(OCc3ccc(OCCN4CCCCC4)cc3)c3ccccc23)cc1OC [ID1224C-1] | 
50.3 | 47.5 | O=C(Nc1ccc(OC(F)(F)F)c(Cl)c1)Nc1ccc(OCc2ccc(OCCN3CCCCC3)cc2)c2ccccc12 [ID1229C-1] | 
66.9 |  | O=C(Nc1ccc(F)c(F)c1)Nc1ccc(OCc2ccc(OCCN3CCCCC3)cc2)c2ccccc12 [ID210105C-1] | 
 | 6.13 | COc1ccc(NC(=O)Nc2ccc(OCc3ccc(OCCN4CCCCC4)c(Cl)c3)c3ccccc23)cc1 [ID210110C-1] | 
1.31 |  | COc1ccc(CNC(=O)Nc2ccc(OCc3ccc(OCCN4CCCCC4)cc3)c3ccccc23)cc1 [ID210113C-1] | IC50 (HuH-7 cells): 4.75 µM
 | 13.2 | O=C(Nc1ccccc1)Nc1ccc(OCc2ccc(OCCN3CCCCC3)cc2)c2ccccc12 [IY1223B-1] | 
1.95 |  | COc1ccc(NC(=O)Nc2ccc(OCc3ccc(OCCN4CCCCC4)cc3)c3ccccc23)cc1Cl [IY1225B-1] | 
6.43 |  | O=C(Nc1ccc(Cl)c(F)c1)Nc1ccc(OCc2ccc(OCCN3CCCCC3)cc2)c2ccccc12 [IY1229C-1] | 
68.2 | 20.4 | O=C(Nc1ccc(Cl)cc1F)Nc1ccc(OCc2ccc(OCCN3CCCCC3)cc2)c2ccccc12 [IY210103B-1] | 
43.8 | 51.4 | O=C(Nc1ccc(F)c(Cl)c1)Nc1ccc(OCc2ccc(OCCN3CCCCC3)cc2)c2ccccc12 [IY210105B-1] | 
4.39 | 1.89 | COc1cc(NC(=O)Nc2ccc(OCc3ccc(OCCN4CCCCC4)cc3)c3ccccc23)ccc1F [IY210105C-1] | 
3.8 | 3.8 | O=C(Nc1ccc(F)cc1)Nc1ccc(OCc2ccc(OCCN3CCCCC3)cc2)c2ccccc12 [IY210105D-1] | 
11 | 11.6 | O=C(Nc1ccncc1)Nc1ccc(OCc2ccc(OCCN3CCCCC3)cc2)c2ccccc12 [IY210122C-1] | 
